Among the data in patent publication US8884030B2, “Inhibitors of Flaviviridae viruses” (priority 2010, dated 2014) are inhibition values, retold here.

The subject of this assay is human hepatoma Huh-7 cell line harboring a HCV replicon. Briefly: HCV replicon assay (inhibition of viral replication, luciferase). It is filed as cell-based. The note with it: Hepatitis C virus, 72 h; 2 μM; Huh-7 HCV replicon cells, 3 days incubation; inhibition of viral replication; read-out: % inhibition at 2 μM. How it is done:
The anti-HCV activity of the compounds of this invention was tested in a human hepatoma Huh-7 cell line harboring a HCV replicon. The assay comprised the following steps:
Step 1: Compound Preparation and Serial Dilution.
Serial dilution was performed in 100% DMSO in a 384-well plate. A solution containing a compound at 225-fold concentration of the starting final serial dilution concentration was prepared in 100% DMSO and 15 uL added to the pre-specified wells in column 3 or 13 of a polypropylene 384-well plate. The rest of the 384-well plate was filled with 10 uL 100% DMSO except for columns 23 and 24, where 10 uL of 500 uM a HCV protease inhibitor (ITMN-191) in 100% DMSO was added. The HCV protease inhibitor was used a control of 100% inhibition of HCV replication. The plate was then placed on a Biomek FX Workstation to start the serial dilution. The serial dilution was performed for ten cycles of 3-fold dilution from column 3 to 12 or from column 13 to 22.
Step 2: Cell Culture Plate Preparation and Compound Addition
To each well of a black polypropylene 384-well plate, 90 μL of cell media containing 1600 suspended Huh-7 HCV replicon cells was added with a Biotek uFlow Workstation. A volume of 0.4 μL of the compound solution was transferred from the serial dilution plate to the cell culture plate on a Biomek FX Workstation. The DMSO concentration in the final assay condition was 0.44%. The plates were incubated for 3 days at 37° C. with 5% CO2 and 85% humidity.
Step 3: Detection of Cytotoxicity and Inhibition of Viral Replication
a) Assessment of cytotoxicity: The media in the 384-well cell culture plate was aspirated with a Biotek EL405 plate-washer. A volume of 50 μL of a solution containing 400 nM Calcein AM in 100% PBS was added to each well of the plate with a Biotek uFlow Workstation. The plate was incubated for 30 minutes at room temperature before the fluorescence signal ([…]) was measured with a Perkin Elmer Envision Plate Reader.
b) Assessment of inhibition of viral replication: The calcein-PBS solution in the 384-well cell culture plate was aspirated with a Biotek EL405 plate-washer. A volume of 20 μL of Dual-Glo luciferase buffer (Promega, Dual-Glo Luciferase Assay Reagent, cat. #E298B) was added to each well of the plate with a Biotek uFlow Workstation. The plate was incubated for 10 minutes at room temperature. A volume of 20 μL of a solution containing 1:100 mixture of Dual-Glo Stop & Glo substrate(Promega, Dual-Glo Luciferase Assay Reagent, cat. #E313B) and Dual-Glo Stop & Glo buffer (Promega, Dual-Glo Luciferase Assay Reagent, cat. #E314B) was then added to each well of the plate with a Biotek uFlow Workstation. The plate was incubated at room temperature for 10 minutes before the luminescence signal was measured with a Perkin Elmer Envision Plate Reader.
The percent cytotoxicity was determined by calcein AM conversion to fluorescent product. The average fluorescent signal from the DMSO control wells were defined as 100% nontoxic. The individual fluorescent signal from testing compound treated well was divided by the average signal from DMSO control wells and then multiplied by 100% to get the percent viability. The percent anti-HCV replication activity was determined by the luminescence signal from the testing well compared to DMSO controls wells. The background signal was determined by the average luminescence signal from the HCV protease inhibitor treated wells and was subtracted from the signal from the testing wells as well as the DMSO control wells. Following 3-fold serial dilutions, the EC50 and CC50 values were calculated by fitting % inhibition at each concentration to the following equation: % inhibition=100%[(EC50/[l])^b+1]
Where b is Hill's coefficient. See, for reference, Hill, A. V., The Possible Effects of the Aggregation of the Molecules of Hæmoglobin on its Dissociation Curves, J. Physiol. 40: iv-vii. (1910). […]
On the technique in general: In antiviral work, replicon cells carry a viral genome segment that copies itself.
Usually inhibition stands for the relative decrease from the control value, in per cent. As for `CC(C)(C)C#Cc1cc(N(C(=O)[C@H]2CC[C@H](C)CC2)C2CCN(C(=O)OC3(C)CCN(C(=O)OC(C)(C)C)C3)CC2)c(C(=O)O)s1` (stereo partly shown) [Compound 71], the inhibition at 2 µM came to 95.1%.
The value for `CC(C)(C)C#Cc1cc(N(C(=O)[C@H]2CC[C@H](C)CC2)[C@H]2CCN(C(=O)OC3CCS(=O)(=O)C3)C2)c(C(=O)O)s1` (stereo partly drawn) [Compound 70, 3-[[2-carboxy-5-(3,3-dimethyl-but-1-ynyl)-thiophene-3-yl]-(trans-4-methylcyclohexanecarbonyl)-3-(S)-amino]-pyrrolidine-1-carboxylic acid 1,1-dioxo-tetrahydro-1λ^6-thiophene-3-yl ester] was 99.1%.
Then `CC(C)(C)C#Cc1cc(N(C(=O)[C@H]2CC[C@H](C)CC2)C2CCN(C(=O)O[C@@H]3CCOC3)CC2)c(C(=O)O)s1` [Compound 53, 4-[[2-carboxy-5-(3,3-dimethyl-but-1-ynyl)-thiophen-3-yl]-(4-trans-methyl-cyclohexanecarbonyl)-amino]-piperidine-1-carboxylic acid tetrahydro-furan-3-(R)-yl ester], with 99.9%; and `CC(C)(C)C#Cc1cc(N(C(=O)[C@H]2CC[C@H](C)CC2)C2CCC(NC(=O)O[C@@H]3CCCNC3)CC2)c(C(=O)O)s1` (stereo partly drawn) [Compound 47, 5-(3,3-dimethyl-but-1-ynyl)-3-{(4-trans-methyl-cyclohexanecarbonyl)-[4-(piperidin-3-(R)-yloxycarbonylamino)-cyclohexyl]-amino}-thiophene-2-carboxylic acid], with 99.9%; and `CC1CCC(C(=O)N(c2cc(C#CC(C)(C)C)sc2C(=O)O)C2CCC(NN(C)c3ccc(Cl)nn3)CC2)CC1` (stereo not shown) [Compound 83, 3-[{4-[N′-(6-Chloro-pyridazin-3-yl)-N′-methyl-hydrazino]-cyclohexyl}-(4-methyl-cyclohexanecarbonyl)-amino]-5-(3,3-dimethyl-but-1-ynyl)-thiophene-2-carboxylic acid], with 99.9%.
Turning to `CC(C)(C)C#Cc1cc(N(C(=O)[C@H]2CC[C@H](C)CC2)C2CCC(NC(=O)O[C@H]3CNC(=O)C3)CC2)c(C(=O)O)s1` (stereo partly drawn) [Compound 49, 5-(3,3-dimethyl-but-1-ynyl)-3-{(4-trans-methyl-cyclohexanecarbonyl)-[4-(5-oxo-pyrrolidin-3-(S)-yloxycarbonylamino)-cyclohexyl]-amino}-thiophene-2-carboxylic acid], the inhibition at 2 µM came out at 99.2%.
As for `CC1CCC(C(=O)N(c2cc(C#CC(C)(C)C)sc2C(=O)O)N(C)c2ccccn2)CC1` (stereo not shown) [Compound 137, 5-(3,3-dimethyl-but-1-ynyl)-3-[N′-methyl-N-(4-methyl-cyclohexanecarbonyl)-N′-pyridin-2-yl-hydrazino]-thiophene-2-carboxylic acid], the inhibition at 2 µM came out at 100%.
In the case of `CC(C)(C)C#Cc1cc(N(C(=O)[C@H]2CC[C@H](C)CC2)C2CCN(C(=O)O[C@H]3CCNC3=O)CC2)c(C(=O)O)s1` [Compound 57, 4-[[2-carboxy-5-(3,3-dimethyl-but-1-ynyl)-thiophen-3-yl]-(4-methyl-cyclohexanecarbonyl)-amino]-piperidine-1-carboxylic acid 2-oxo-pyrrolidin-3-(S)-yl ester], the inhibition at 2 µM was 78.2%.
The value for `CC1CCC(C(=O)N(c2cc(C#CC(C)(C)C)sc2C(=O)O)N(C)C2CCC3(CC2)OCCO3)CC1` (stereo not shown) [Compound 122] was 99.7%.
Consider `CC(C)(C)C#Cc1cc(N(C(=O)[C@H]2CC[C@H](C)CC2)[C@H]2CCN(C(=O)OC3CCNCC3)C2)c(C(=O)O)s1` [Compound 40, 3-(S)-[[2-carboxy-5-(3,3-dimethyl-but-1-ynyl)-thiophen-3-yl]-(4-trans-methyl-cyclohexanecarbonyl)-amino]-pyrrolidine-1-carboxylic acid piperidin-4-yl ester], for which the inhibition at 2 µM turned out to be 98.6%.
